Laboratory results reported in patent US20140031217A1, “HERBICIDAL COMPOSITIONS COMPRISING 4-AMINO-3-CHLORO-5-FLUORO-6-(4-CHLORO-2-FLUORO-3-METHOXYPHENYL)PYRIDINE-2-CARBOXYLIC ACID OR A DERIVATIVE THEREOF AND AUXIN TRANSPORT INHIBITORS” (DOW AGROSCIENCES LLC, priority 2012, published 2014).

Assays:
CYPIR = assay: Postemergence foliar-applied greenhouse weed control, CYPIR; type: in vivo, Cyperus iria L.
Excerpt: Seeds or nutlets of the desired test plant species were planted in a soil matrix prepared by mixing a loam or sandy loam soil (e.g., 28.6 percent silt, 18.8 percent clay, and 52.6 percent sand, with a pH of about 5.8 and an organic matter content of about 1.8 percent) and calcareous grit in an 80 to 20 ratio. The soil matrix was contained in plastic pots with a volume of 1 quart and a surface area of 83.6 square centimeters (cm^2). When required to ensure good germination and healthy plants, a fungicide treatment and/or other chemical or physical treatment was applied. The plants were grown for 8-22 days in a greenhouse with an approximate 14 h photoperiod which was maintained at about 29° C. during the day and 26° C. during the night. Nutrients (Peters Excel® 15-5-15 5-Ca 2-Mg and iron chelate) were applied in the irrigation solution as needed and water was added on a regular basis. Supplemental lighting was provided with overhead metal halide 1000-Watt lamps as necessary. The plants were employed for testing when they reached the first through fourth true leaf stage.
Treatments consisted of the acid or esters of 4-amino-3-chloro-5-fluoro-6-(4-chloro-2-fluoro-3-methoxy-phenyl) pyridine-2-carboxylic acid (Compound A), each formulated as an SC (suspension concentrate), and various herbicidal components alone and in combination. Forms of compound A were applied on an acid equivalent basis.
Other herbicidal components were applied on an active ingredient basis and included auxin transport inhibiting (ATI) herbicides chlorflurenol (technical material), chlorflurenol-methyl (technical material), diflufenzopyr (technical material), diflufenzopyr sodium (technical material), flurenol-methyl (technical material) and naptalam (technical material).
Treatment requirements were calculated based upon the rates being tested, the concentration of active ingredient or acid equivalent in the formulation, and a 12 mL application volume at a rate of 187 L/ha.
For treatments comprised of formulated and technical compounds, weighed amounts of the technical materials were placed individually in 25 mL glass vials and dissolved in a volume of 97:3 v/v acetone/DMSO to obtain 12× stock solutions, and measured amounts of the formulated compounds were placed individually in 25 mL glass vials and diluted in a volume of 1.5% (v/v) crop oil concentrate or water to obtain 12× stock solutions. […] Application solutions were prepared by adding an appropriate amount of each stock solution (e.g., 1 mL) and diluted to the appropriate final concentrations with the addition of an appropriate amount of an aqueous mixture of 1.5% (v/v) crop oil concentrate so that the final spray solutions contained 1.25% (v/v) crop oil concentrate. When required, additional water and/or 97:3 v/v acetone/DMSO was added to individual application solutions so that the final acetone and DMSO concentrations of the application solutions being compared were 8.1% and 0.25%, respectively.
All stock solutions and applications solutions were visually inspected for compound compatibility prior to application. Spray solutions were applied to the plant material with an overhead Mandel track sprayer equipped with an 8002E nozzle calibrated to deliver 187 L/ha over an application area of 0.503 m^2 at a spray height of 18 to 20 inches (46 to 50 cm) above average plant canopy height. Control plants were sprayed in the same manner with the solvent blank.
The treated plants and control plants were placed in a greenhouse as described above and watered by sub-irrigation to prevent wash-off of the test compounds. After approximately 3 weeks, the condition of the test plants as compared with that of the untreated plants was determined visually and scored on a scale of 0 to 100 percent where 0 corresponds to no injury or growth inhibition and 100 corresponds to complete kill. […]

ECHOR = assay: In-water applied (paddy) greenhouse weed control, ECHOR; type: in vivo, Echinochloa oryzoides (Ard.) Fritsch
Description: Weed seeds or nutlets of the desired test plant species were planted in puddled soil (mud) prepared by mixing a shredded, non-sterilized mineral soil (50.5 percent silt, 25.5 percent clay, and 24 percent sand, with a pH of about 7.6 and an organic matter content of about 2.9 percent) and water at a 1:1 volumetric ratio. The prepared mud was dispensed in 365 mL aliquots into 16-ounce (oz.) non-perforated plastic pots with a surface area of 86.59 square centimeters (cm^2) leaving a headspace of 3 centimeters (cm) in each pot. Mud was allowed to dry overnight prior to planting or transplanting. Rice seeds were planted in Sun Gro MetroMix® 306 planting mixture, which typically has a pH of 6.0 to 6.8 and an organic matter content of about 30 percent, in plastic plug trays. Seedlings at the second or third leaf stage of growth were transplanted into 840 mL of mud contained in 32-oz. non-perforated plastic pots with a surface area of 86.59 cm^2 4 days prior to herbicide application. The paddy was created by filling the headspace of the pots with 2.5 to 3 cm of water. When required to ensure good germination and healthy plants, a fungicide treatment and/or other chemical or physical treatment was applied. The plants were grown for 4-22 days in a greenhouse with an approximate 14 h photoperiod which was maintained at about 29′C during the day and 26° C. during the night. Nutrients were added as Osmocote® (19:6:12, N:P:K+minor nutrients) at 2 g per 16-oz. pot and 4 g per 960-mL 32-oz. pot. Water was added on a regular basis to maintain the paddy flood, and supplemental lighting was provided with overhead metal halide 1000-Watt lamps as necessary. The plants were employed for testing when they reached the second or third true leaf stage.
Treatments consisted of the acid or esters of 4-amino-3-chloro-5-fluoro-6-(4-chloro-2-fluoro-3-methoxy-phenyl)pyridine-2-carboxylic acid (compound A) each formulated as an SC and various herbicidal components alone and in combination. Forms of compound A were applied on an acid equivalent basis.
Other herbicidal components were applied on an active ingredient basis and included auxin transport inhibiting (ATI) herbicides chlorflurenol-methyl (technical material), chlorflurenol (technical material), diflufenzopyr (technical material), dilfufenzopyr sodium (technical material), flurenol-methyl (technical material,) and naptalam (technical material).
Treatment requirements for each compound or herbicidal component were calculated based upon the rates being tested, the concentration of active ingredient or acid equivalent in the formulation, an application volume of 2 mL per component per pot, and an application area of 86.59 cm^2 per pot.
For formulated compounds, a measured amount was placed in an individual 100 or 200 mL glass vial and was dissolved in a volume of 1.25% (v/v) Agri-Dex® crop oil concentrate to obtain application solutions.
For technical grade compounds, a weighed amount was placed in an individual 100 to 200 mL glass vial and was dissolved in a volume of acetone to obtain concentrated stock solutions. […] The concentrated stock solutions obtained were diluted with an equivalent volume of an aqueous mixture containing 2.5% (v/v) crop oil concentrate so that the final application solutions contained 1.25% (v/v) crop oil concentrate.
Applications were made by injecting with a pipetter appropriate amounts of the application solutions, individually and sequentially, into the aqueous layer of the paddy. Control plants were treated in the same manner with the solvent blank. Applications were made so that all treated plant material received the same concentrations of acetone and crop oil concentrate.
The treated plants and control plants were placed in a greenhouse as described above and water was added as needed to maintain a paddy flood. […]

| Structure (SMILES) | Visual Weed Control (%) Obs (CYPIR; 20 DAA, 4.38 gae/ha) [%] | Visual Weed Control (%) Obs (ECHOR; 20 DAA, 8.75 gae/ha) [%] | Visual Weed Control (%) Obs (ECHOR; 20 DAA, 17.5 gae/ha) [%] | Visual Weed Control (%) Obs (ECHOR; 20 DAA, 35 gae/ha) [%] | Visual Weed Control (%) Obs (ECHOR; 22 DAA, 8.75 gae/ha) [%] | Visual Weed Control (%) Obs (ECHOR; 22 DAA, 17.5 gae/ha) [%] | Visual Weed Control (%) Obs (ECHOR; 22 DAA, 35 gae/ha) [%] | Visual Weed Control (%) Obs (CYPIR; 22 DAA, 8 gae/ha) [%] | Visual Weed Control (%) Obs (ECHOR; 19 DAA, 32 gae/ha) [%] | Visual Weed Control (%) Obs (ECHOR; 20 DAA, 4.38 gae/ha) [%] |
| --- | --- | --- | --- | --- | --- | --- | --- | --- | --- | --- |
| COc1c(Cl)ccc(-c2nc(C(=O)O)c(Cl)c(N)c2F)c1F [Compound A Acid, 4-amino-3-chloro-6-(4-chloro-2-fluoro-3-methoxyphenyl)-5-fluoropyridine-2-carboxylic acid] | 30 | 10 | 15 | 25 | 0 | 20 | 20 | – | – | – |
| COc1c(Cl)ccc(-c2nc(C(=O)OCc3ccccc3)c(Cl)c(N)c2F)c1F [Compound A Benzyl Ester] | 70 | 15 | – | – | – | – | – | 30 | 25 | 10 |
